The test relates to CFTR-Y122X (GFP-CFTR-Y122X-Renilla construct) in Hek293 cell lines. The test can be described thus: CFTR-Y122X assay (dual reporter readthrough, Renilla luminescence). The format is cell-based. The note with it: Homo sapiens, compounds incubated 24 h, tested up to 100 μM; for AC50: nonsense mutation suppression in the CFTR-Y122X assay; for Emax: nonsense mutation suppression, 100% activity = 14 mM paromomycin, read-out: Amax. An excerpt: In particular, compounds of formula (I), (I′), (Ia), (Ia′) or (Ib) I act as nonsense mutation suppressors on frequent PTCs, e.g. on Y122X in the mRNA of the cystic fibrosis conductance regulator protein (CFTR). This can be determined in vitro, for example, using cell lines expressing GFP-CFTR-Y122X-Renilla constructs as described herein.
Activity of compounds of the present invention was examined in recombinant, dual reporter isogenic Hek293 cell lines (“CFTR-Y122X assay”). The engineered reporter constructs contained the 18 bp sequence strech corresponding to a common Y122X PTC mutation in CFTR class I mutant patients (see Sermet-Gaudelus, BMC Medicine, 2007, 5(5)). Instead of a tyrosine (Y) in position 122 of the CFTR protein a TGA stop codon interrupts the open reading frame (Y122X) of the corresponding mRNA. This TGA stop codon triplet (followed by the pyrimidine base cytosine) is permissive to aminoglycoside mediated translational readthrough which served as positive control for high throughput screening. A corresponding TAA stop codon variant and a wildtype non mutated construct was used for confirmation and counter screening. The CFTR sequence was sandwiched between an eGFP reporter, and a triple myc tag sequence fused to a full length Renilla reporter. All sequences, including an intron containing one positioned pre-eGFP (b-globin intron) were cloned in frame. The corresponding expression constructs were stably expressed in the isogenic HEK-R4 cell host (Invitrogen Incorp.) and selected by blasticidin resistance. The isogenic integration of the construct minimizes gene dose effects and improves assay reproducibility. Stably integrated single cell derived clones were selected and characterized for aminoglycoside mediated readthrough. […] Readthrough of Y122X accumulates an intracellular localized fusion protein approximately 65.5 kDa in size as controlled by western blot analysis and immunofluorescence using an anti-renilla antibody. The eGFP reporter pre-PTC mutation serves as visual control for genetic stability of the screening clones and minimizes protein degradation of small fusion protein amounts. In the assay, compound concentration was 10 μM. In miniaturized 1536 well format 2000 cells were dispensed in 4 μl/well and incubated for 24 h at 37° C., 5% CO2. 40 nl compounds were placed on the cells with control wells containing 1 ul Paramomycin and 14.4 mM final concentration. Compounds were incubated for 24 h. Renilla Glo substrate (2.5 ul) was added and plates were centrifuged and processed for luminescence measurement using various readers. Activity calculation was done using the equation: A1(%)=100*(S−NC)/(AC−NC) where AC, NC and S correspond to active controls (injection of Stimulation buffer=100% stimulation), neutral controls (buffer injection which Iloprost EC10) and screening samples (S). NC corresponds to 0% activity whereas AC is 100% activity (14 mM paromomycin). False positive artefacts were removed in confirmation and validation screening using the same assay format followed by counterscreening using the respective wildtype construct (w/o PTC mutation) cell model. Compounds were tested up to 100 μM compound concentration.

As a reminder, the AC50 is the concentration at which the activity in the assay is half-maximal. Higher therefore signals weaker potency. For the compound `Cn1c2cc(C3CCC3)n(-c3ccccc3)c(=O)c2c(=O)c2ccsc21` [Example 1.29, 7-cyclobutyl-9-methyl-6-phenylthieno[2,3-b][1,6]naphthyridine-4,5(6H,9H)-dione], half-maximal activity (AC50) was put at 0.7 µM and the Emax was determined as 286%.

As to `O=c1c2c([nH]c3cc(C4CCC4)n(-c4ccccc4)c(=O)c13)CCCC2` [Example 1.30, 3-cyclobutyl-2-phenyl-6,7,8,9-tetrahydrobenzo[b][1,6]naphthyridine-1,10(2H,5H)-dione], the activity was half-maximal at 0.7 µM (AC50) and the Emax was 324%.

Turning to `Cc1cc2c(=O)c3c(=O)n(-c4ccccc4)c(C4CCC4)cc3n(C)c2s1` [Example 1.31, 7-cyclobutyl-2,9-dimethyl-6-phenylthieno[2,3-b][1,6]naphthyridine-4,5(6H,9H)-dione], the activity was half-maximal at 0.6 µM (AC50) and the Emax turned out to be 228%. As for `O=c1c2ccsc2[nH]c2cc(C3CCC3)n(-c3ccccc3)c(=O)c12` [Example 1.32, 7-cyclobutyl-6-phenylthieno[2,3-b][1,6]naphthyridine-4,5(6H,9H)-dione], the concentration at half-maximal activity (AC50) is 4.2 µM and the Emax came to 247%. In the same order, the values of `Cc1cc2c(=O)c3c(=O)n(-c4ccccc4)c(C4CCC4)cc3[nH]c2s1` [Example 1.33, 7-cyclobutyl-2-methyl-6-phenylthieno[2,3-b][1,6]naphthyridine-4,5(6H,9H)-dione] are 19.4 µM and 243%. In the same order, the values of `Cn1c2ccsc2c(=O)c2c(=O)n(-c3ccccc3)c(C3CCC3)cc21` [Example 1.34, 6-cyclobutyl-4-methyl-7-phenylthieno[3,2-b][1,6]naphthyridine-8,9(4H,7H)-dione] are 1 µM and 263%.

For the compound `O=c1c2sccc2[nH]c2cc(C3CCC3)n(-c3ccccc3)c(=O)c12` [Example 1.35, 6-cyclobutyl-7-phenylthieno[3,2-b][1,6]naphthyridine-8,9(4H,7H)-dione], the activity was half-maximal at 0.4 µM (AC50) and the Emax is 126%. For `Cc1cc2c(s1)c(=O)c1c(=O)n(-c3ccccc3)c(C3CCC3)cc1n2C` [Example 1.36, 6-cyclobutyl-2,4-dimethyl-7-phenylthieno[3,2-b][1,6]naphthyridine-8,9(4H,7H)-dione], the AC50 is 4.1 µM and the Emax is 177%. The corresponding values for `Cc1cc2[nH]c3cc(C4CCC4)n(-c4ccccc4)c(=O)c3c(=O)c2s1` [Example 1.37, 6-cyclobutyl-2-methyl-7-phenylthieno[3,2-b][1,6]naphthyridine-8,9(4H,7H)-dione] are 1.4 µM and 164%. The corresponding values for `Cc1ccc2c(c1)c(=O)c1c(=O)n(-c3ccccc3)c(C3CCC3)cc1n2C` [Example 1.38, 3-cyclobutyl-5,8-dimethyl-2-phenylbenzo[b][1,6]naphthyridine-1,10(2H,5H)-dione] are 2.3 µM and 215%.

In the case of `Cn1c2ccc(F)cc2c(=O)c2c(=O)n(-c3ccccc3)c(C3CCC3)cc21` [Example 1.39, 3-cyclobutyl-8-fluoro-5-methyl-2-phenylbenzo[b][1,6]naphthyridine-1,10(2H,5H)-dione], the AC50 stood at 1.2 µM and the Emax amounted to 239%.

As for `O=c1c2cc(Cl)ccc2[nH]c2cc(C3CCC3)n(-c3ccccc3)c(=O)c12` [Example 1.40, 8-chloro-3-cyclobutyl-2-phenylbenzo[b][1,6]naphthyridine-1,10(2H,5H)-dione], the activity was half-maximal at 1 µM (AC50) and the Emax was 300%. The corresponding values for `Cc1ccc2[nH]c3cc(C4CCC4)n(-c4ccccc4)c(=O)c3c(=O)c2c1` [Example 1.41, 3-cyclobutyl-8-methyl-2-phenylbenzo[b][1,6]naphthyridine-1,10(2H,5H)-dione] are 0.5 µM and 223%. `Cn1c2ccc(Cl)cc2c(=O)c2c(=O)n(-c3ccccc3)c(C3CCC3)cc21` [Example 1.42, 8-chloro-3-cyclobutyl-5-methyl-2-phenylbenzo[b][1,6]naphthyridine-1,10(2H,5H)-dione]: the concentration at half-maximal activity (AC50) amounted to 3.9 µM and the Emax stood at 134%. Regarding `COc1cccc2c(=O)c3c(=O)n(-c4ccccc4)c(C(C)C)cc3n(C)c12` [Example 1.43, 3-isopropyl-6-methoxy-5-methyl-2-phenylbenzo[b][1,6]naphthyridine-1,10(2H,5H)-dione], half-maximal activity (AC50) was put at 22 µM and the Emax was found to be 186%. The corresponding values for `O=c1c2cc(F)ccc2[nH]c2cc(C3CCC3)n(-c3ccccc3)c(=O)c12` [Example 1.44, 3-cyclobutyl-8-fluoro-2-phenylbenzo[b][1,6]naphthyridine-1,10(2H,5H)-dione] are 0.4 µM and 178%. The corresponding values for `O=c1c2cccc3c2n(c2cc(C4CCC4)n(-c4ccccc4)c(=O)c12)CC3` [Example 1.45, 9-cyclobutyl-8-phenyl-1H-indolo[1,7-ab][1,6]naphthyridine-6,7(2H,8H)-dione] are 0.6 µM and 252%. On to `COc1cccc2c(=O)c3c(=O)n(-c4ccccc4)c(C4CCC4)cc3n(C)c12` [Example 1.46, 3-cyclobutyl-6-methoxy-5-methyl-2-phenylbenzo[b][1,6]naphthyridine-1,10(2H,5H)-dione], for which the AC50 worked out at 3.4 µM and the Emax turned out to be 247%. Take `COc1cccc2c(=O)c3c(=O)n(-c4ccccc4)c(C(C)C)cc3[nH]c12` [Example 1.47, 3-isopropyl-6-methoxy-2-phenylbenzo[b][1,6]naphthyridine-1,10(2H,5H)-dione]: the activity was half-maximal at 5.2 µM (AC50) and the Emax turned out to be 312%.

For `COc1cccc2c(=O)c3c(=O)n(-c4ccccc4)c(C4CCC4)cc3[nH]c12` [Example 1.48, 3-cyclobutyl-6-methoxy-2-phenylbenzo[b][1,6]naphthyridine-1,10(2H,5H)-dione], the AC50 came to 1.8 µM and the Emax was determined as 227%. As to `COc1ccc2c(c1)c(=O)c1c(=O)n(-c3ccccc3)c(C(C)C)cc1n2C` [Example 1.49], the Emax was found to be 17%. For `COc1ccc2[nH]c3cc(C(C)C)n(-c4ccccc4)c(=O)c3c(=O)c2c1` [Example 1.50, 3-isopropyl-8-methoxy-2-phenylbenzo[b][1,6]naphthyridine-1,10(2H,5H)-dione], the AC50 came out at 16.9 µM and the Emax was determined as 110%.

As for `CC(C)c1cc2c(c(=O)c3cc(O)ccc3n2C)c(=O)n1-c1ccccc1` [Example 1.51, 8-hydroxy-3-isopropyl-5-methyl-2-phenylbenzo[b][1,6]naphthyridine-1,10(2H,5H)-dione], half-maximal activity (AC50) was put at 16.5 µM and the Emax came out at 144%. Take `CC(C)c1cc2c(c(=O)c3cccc(O)c3n2C)c(=O)n1-c1ccccc1` [Example 1.52, 6-hydroxy-3-isopropyl-5-methyl-2-phenylbenzo[b][1,6]naphthyridine-1,10(2H,5H)-dione]: half-maximal activity (AC50) was put at 21 µM and the Emax is 49%. The corresponding values for `O=c1c2ccccc2[nH]c2cc(C3CCC3)n(C3CCCC3)c(=O)c12` [Example 2.1, 3-cyclobutyl-2-cyclopentylbenzo[b][1,6]naphthyridine-1,10(2H,5H)-dione] are 0.5 µM and 229%.

Values taken from patent US10138232B2, “Naphthyridinedione derivatives” (NOVARTIS AG, priority 2014, dated 2018).
